From US20160081986A1, “LONG-ACTING SPIRO-ISOXAZOLINE ANTIPARASITIC COMPOSITIONS” (priority 2013, published 2016)

Assays:
[1] = test system: ticks (Ixodes scapularis); test: 6 Month PKPD study: efficacy against ticks on beagle dogs; format: in vivo; conditions: for Geometric mean live ticks (LT): dogs, 25 mg/kg topical on Day 0; for % Reduction live ticks: vs control
Experimental: (§1) The spiro-azetidine isoxazoline, (S)-1-(5′-(5-(3,5-dichloro-4-fluorophenyl)-5-(trifluoromethyl)-4,5-dihydroisoxazol-3-yl)-3′H-spiro[azetidine-3,1′-isobenzofuran]-1-yl)-2-(methylsulfonyl)ethanone (Compound 1) was used to conduct an in-vivo long-acting efficacy study.
(§2) The study assessed the efficacy of a 25 mg/kg (0.1 mL/kg) topical dose of Compound 1 versus control against fleas (Ctenocephalides felis) and ticks (Ixodes scapularis) on beagle dogs. The formulation was butyl digol:dimethyl isosorbide (90:10 v/v %), selected as it had excellent solubility for Compound 1. Eight male and eight female dogs were acclimated to the testing facility. On Day 0 of the study, each animal received a topical dose of Compound 1 or control (formulation without Compound 1). On Days 56, 89, 117, 145, and 173, animals were artificially infested with about 100 adult unfed fleas. Flea counts were conducted 24 hours post infestation. At each count, all fleas were removed from the dogs. On Days 55, 88, 116, 144, and 172, all dogs were infested with about 50 viable, unfed adult ticks. Tick counts were conducted 48 hours post infestation. At each count, all ticks were removed from the dogs. Further, some hair was removed from the left or right shoulder from three individual dogs from each treatment group 26 days post dose. The hair from each dog was equally divided and placed into two separate 20 mL scintillation vials. Ten female Rhipicephalus sanguineus and ten female Ixodes scapularis ticks were placed in the vials with the hair. Ticks were evaluated for viability at 2-4 hours, 24 hours, 48 hours and 72 hours post vial infestation.

[2] = test system: fleas (Ctenocephalides felis); test: 6 Month PKPD study: efficacy against fleas on beagle dogs; format: in vivo; conditions: for Geometric mean live fleas (LF): dogs, 25 mg/kg topical on Day 0; for % Reduction live fleas: vs control
Experimental: as §1, §2

Ixodes scapularis ticks = test: Tick infested hair samples from treated dogs (contact activity); format: in vivo; conditions: for # Dead Ticks (mean): hair taken 26 days post dose, ten ticks per vial; for % Reduction: vs control
Experimental: as §2

[3] = test system: Rhipicephalus sanguineus ticks; test: as above; format: in vivo; conditions: for # Dead Ticks (mean): hair taken 26 days post dose, ten ticks per vial; for % Reduction: vs control
Experimental: as §2

[4] = Franz diffusion cell screening (FDCS), flux and Kp; format: in vitro ADME, canine
Experimental: FDCS yields flux rates and permeation constants for the formulations through a fixed membrane (e.g., canine-, feline-, and bovine-skin).
Canine skin, stored at −20° C. for a maximum of 1 year, was thawed, trimmed, and dermatomed to give a thin layer of skin about 0.8-1.5 mm in thickness. The skin was mounted onto the Franz diffusion cell and equilibrated with the receptor media, 50:50 v/v % EtOH:Milli-Q water, for 2 to 4 hours. The receptor media was selected to provide sink conditions for Compound 1. Once equilibrated, test formulations were applied to the donor side, generally 50 μL/cm^2. Samples were generally obtained at 12, 24, 30, 36, 42, and 48 hours, but can be obtained at any six timepoints out to 72 hours. A control vehicle of with Compound 1 (250 mg/mL) in butyl digol:dimethyl isosorbide (90:10 v/v %) was included in every FDCS study.
Post experiment samples were stored at 4° C. until analysed for Compound 1 concentration by LCMS. Cumulative amount of Compound 1 in ng/cm^2 was calculated and plotted versus time. The gradient of straight line portion of the graph yields the flux value (ng/cm^2/hr) for a given formulation, FIG. 1. The flux can be divided by the applied concentration of Compound 1 to yield the permeability constant Kp (cm/hr)—often converted to a log 10 scale.

[5] = Solubility of Compound 1 in the formulation; format: physicochemical; conditions: butyl digol:dimethyl isosorbide (90:10 v/v %)
Experimental: as §2

[6] = 25 mg/kg topical, butyl digol and dimethyl isosorbide, for 5 months

SMILES: CS(=O)(=O)CC(=O)N1CC2(C1)OCc1cc(C3=NO[C@@](c4cc(Cl)c(F)c(Cl)c4)(C(F)(F)F)C3)ccc12 [Compound 1, (S)-1-(5′-(5-(3,5-dichloro-4-fluorophenyl)-5-(trifluoromethyl)-4,5-dihydroisoxazol-3-yl)-3′H-spiro[azetidine-3,1′-isobenzofuran]-1-yl)-2-(methylsulfonyl)ethanone]
- control of ticks (reduction in geometric mean counts vs placebo) [1, 6]: > 95%
- Geometric mean live ticks (LT) ([1]; 57 days): 0.0
- Geometric mean live ticks (LT) ([1]; 90 days): 0.0
- Geometric mean live ticks (LT) ([1]; 118 days): 0.1
- Geometric mean live ticks (LT) ([1]; 146 days): 0.3
- Geometric mean live ticks (LT) ([1]; 174 days): 4.5
- % Reduction live ticks ([1]; 25 mg/kg topical, 57 days): 100%
- % Reduction live ticks ([1]; 25 mg/kg topical, 90 days): 100%
- % Reduction live ticks ([1]; 25 mg/kg topical, 118 days): 99.1%
- % Reduction live ticks ([1]; 25 mg/kg topical, 146 days): 97.3%
- % Reduction live ticks ([1]; 25 mg/kg topical, 174 days): 64.3%
- control of fleas (reduction in geometric mean counts vs placebo) [2, 6]: > 95%
- Geometric mean live fleas (LF) ([2]; 57 days): 0.2
- Geometric mean live fleas (LF) ([2]; 90 days): 0.0
- Geometric mean live fleas (LF) ([2]; 118 days): 0.9
- Geometric mean live fleas (LF) ([2]; 146 days): 0.8
- Geometric mean live fleas (LF) ([2]; 174 days): 13
- % Reduction live fleas ([2]; 25 mg/kg topical, 57 days): 98.6%
- % Reduction live fleas ([2]; 25 mg/kg topical, 90 days): 100%
- % Reduction live fleas ([2]; 25 mg/kg topical, 118 days): 98.6%
- % Reduction live fleas ([2]; 25 mg/kg topical, 146 days): 98.3%
- % Reduction live fleas ([2]; 25 mg/kg topical, 174 days): 74.3%
- duration of contact activity against ticks following the topical dose (Ixodes scapularis ticks; hair samples, I. scapularis and R. sanguineus): at least 26 days
- # Dead Ticks (mean) (Ixodes scapularis ticks; 2-4 hours post infestation): 0
- # Dead Ticks (mean) (Ixodes scapularis ticks; 24 hours post infestation): 3.7
- # Dead Ticks (mean) (Ixodes scapularis ticks; 48 hours post infestation): 7.3
- # Dead Ticks (mean) (Ixodes scapularis ticks; 72 hours post infestation): 9.3
- % Reduction (Ixodes scapularis ticks; 2-4 hours post infestation): 0.0%
- % Reduction (Ixodes scapularis ticks; 24 hours post infestation): 72.7%
- % Reduction (Ixodes scapularis ticks; 48 hours post infestation): 86.4%
- % Reduction (Ixodes scapularis ticks; 72 hours post infestation): 85.7%
- # Dead Ticks (mean) ([3]; 2-4 hours post infestation): 0
- # Dead Ticks (mean) ([3]; 24 hours post infestation): 9.0
- # Dead Ticks (mean) ([3]; 48 hours post infestation): 9.3
- # Dead Ticks (mean) ([3]; 72 hours post infestation): 9.7
- % Reduction ([3]; 2-4 hours post infestation): 0.0%
- % Reduction ([3]; 24 hours post infestation): 100.0%
- % Reduction ([3]; 48 hours post infestation): 100.0%
- % Reduction ([3]; 72 hours post infestation): 100.0%
- flux rates and permeation constants with increasing dimethyl isosorbide (FIG. 3) ([4]; 250 mg/mL, butyl digol:dimethyl isosorbide 90:10, 80:20, 60:40 v/v %): small reduction
- flux rates and permeation constants versus oleic acid level (FIG. 4) ([4]; 250 mg/mL, butyl digol:oleic acid 95:5, 90:10, 80:20 v/v %): increase with increasing oleic acid levels
- flux versus drug load (FIG. 2) ([4]; 50, 150 and 250 mg/mL in butyl digol:dimethyl isosorbide 90:10 v/v %): increased drug load correlates to increased flux
- solubility for Compound 1 [5]: excellent
